Results as given in patent US20210260070A1, “LYSIN CF-301 RESENSITIZES METHICILLIN-RESISTANT STAPHYLOCOCCUS AUREUA (MRSA) TO PENICILLIN DERIVATIVES AND FIRST GENERATION CEPHALOSPORINS” (priority 2018, published 2021).

How the values were obtained:
Format in all cases: cell-based, Staphylococcus aureus
[1] = test system: nine different MRSA strains; assay: Broth microdilution checkerboard assays, summary over the panel; conditions: each of the nine MRSA strains; breakpoint MIC ≤2 sensitive
Source text: (§1) In some embodiments, the present lysin polypeptides reduce the minimum inhibitory concentration (MIC) of an antibiotic. Any known method to assess MIC may be used. In some embodiments, a checkerboard assay is used to determine the effect of a lysin on antibiotic concentration. The checkerboard assay is based on a modification of the CLSI method for MIC determination by broth microdilution (See Clinical and Laboratory Standards Institute (CLSI), CLSI. 2015. Methods for Dilution Antimicrobial Susceptibility Tests for Bacteria That Grow Aerobically; Approved Standard-10th Edition. Clinical and Laboratory Standards Institute, Wayne, Pa., which is herein incorporated by reference in its entirety and Ceri et al. 1999. J. Clin. Microbiol. 37: 1771-1776, which is also herein incorporated by reference in its entirety).
(§2) Checkerboards are constructed by first preparing columns of e.g., a 96-well polypropylene microtiter plate, wherein each well has the same amount of antibiotic diluted 2-fold along the horizontal axis. […] The lysin and antibiotic dilutions are then combined, so that each column has a constant amount of antibiotic and doubling dilutions of lysin, while each row has a constant amount of lysin and doubling dilutions of antibiotic. Each well thus has a unique combination of lysin and antibiotic. Bacteria are added to the drug combinations at a given concentration. […] Summation fractional inhibitory concentrations (ΣFICs) are calculated for each drug and the minimum ΣFIC value (ΣFICmin) is used to determine the effect of the lysin/antibiotic combination.
A step-wise approach was used to evaluate PlySs2 as a resensitizing agent. First, broth microdilution checkerboard assays were used to determine fractional inhibitory concentration index (FICI) values for combinations of PlySs2 with three β-lactam antibiotics [oxacillin (OXA), nafcillin (NAF), and cefazoline (CFZ)] against nine different MRSA strains. […] Representative single agent MICs are also shown, determined for each agent alone (initial) and in combinations (final). […]

MRSA strain NRS 11 = assay: Broth microdilution checkerboard assay; design: unit not given here; conditions: for MICinitial: each agent alone (initial); for MICfinal: * = Resensitization
Source text: as §1, §2
(§3) A step-wise approach was used to evaluate PlySs2 as a resensitizing agent. First, broth microdilution checkerboard assays were used to determine fractional inhibitory concentration index (FICI) values for combinations of PlySs2 with three β-lactam antibiotics [oxacillin (OXA), nafcillin (NAF), and cefazoline (CFZ)] against nine different MRSA strains. Data from the checkerboard assays were generated to determine the interaction and potency of PlySs2 with the β-lactam antibiotics in comparison to their individual activities. This comparison is represented as the FICI value, whereby values of ≤0.5 are consistent with synergy, values of >0.5-<1 are highly-additive, values of 1-≤2 are indifferent, and values >2 are antagonistic. Representative single agent MICs are also shown, determined for each agent alone (initial) and in combinations (final). Resensitization occurs in synergistic combinations in which the β-lactam antibiotic MIC values fall below established breakpoints, e.g. a MIC value of ≤2 for β-lactam-sensitive isolates, a MIC value of ≥4 for β-lactam-resistant isolates. See Clinical and Laboratory Standards Institute (CLSI), CLSI. 2019. M100 Performance Standards for Antimicrobial Susceptibility Testing; 29th Edition. Clinical and Laboratory Standards Institute, Wayne, Pa.

MRSA strain CAIRD 426 = assay: Broth microdilution checkerboard assay; design: unit not given here; conditions: for MICinitial: each agent alone (initial); for MICfinal: * = Resensitization
Source text: as §1, §2, §3

MRSA strain ATCC 33591 = assay: Broth microdilution checkerboard assay; design: unit not given here; conditions: for MICinitial: each agent alone (initial); for MICfinal: * = Resensitization
Source text: as §1, §2, §3

MRSA strain JMI 1280 = assay: Broth microdilution checkerboard assay; design: unit not given here; conditions: for MICinitial: each agent alone (initial); for MICfinal: * = Resensitization
Source text: as §1, §2, §3

MRSA strain HPV 107 = assay: Broth microdilution checkerboard assay; design: unit not given here; conditions: for MICinitial: each agent alone (initial); for MICfinal: * = Resensitization
Source text: as §1, §2, §3

MRSA strain ATCC 43300 = assay: Broth microdilution checkerboard assay; design: unit not given here; conditions: for MICinitial: each agent alone (initial); for MICfinal: * = Resensitization
Source text: as §1, §2, §3

MRSA strain JMI4789 = assay: Broth microdilution checkerboard assay; design: unit not given here; conditions: for MICinitial: each agent alone (initial); for MICfinal: * = Resensitization
Source text: as §1, §2, §3

MRSA strain MW2 = assay: Broth microdilution checkerboard assay; design: unit not given here; conditions: for MICinitial: each agent alone (initial); for MICfinal: * = Resensitization
Source text: as §1, §2, §3

MRSA strain JMI 227 = assay: Broth microdilution checkerboard assay; design: unit not given here; conditions: for MICinitial: each agent alone (initial); for MICfinal: * = Resensitization
Source text: as §1, §2, §3

[2] = in combination PlySs2 + CFZ (final)
[3] = in combination PlySs2 + NAF (final)

| SMILES | MIC in synergistic combination with PlySs2 relative to breakpoint [1] | MICinitial (MRSA strain NRS 11) | MICinitial (MRSA strain CAIRD 426) | MICinitial (MRSA strain ATCC 33591) | MICinitial (MRSA strain JMI 1280) | MICinitial (MRSA strain HPV 107) | MICinitial (MRSA strain ATCC 43300) | MICinitial (MRSA strain JMI4789) | MICinitial (MRSA strain MW2) | MICinitial (MRSA strain JMI 227) | other results |
| --- | --- | --- | --- | --- | --- | --- | --- | --- | --- | --- | --- |
| Cc1nnc(SCC2=C(C(=O)O)N3C(=O)[C@@H](NC(=O)Cn4cnnn4)[C@H]3SC2)s1 [CFZ, cefazoline] | below breakpoint values | 256 | 8 | 128 | 32 | 16 | 16 | 4 | 4 | 2 | MICfinal (MRSA strain NRS 11; [2]): 1*; MICfinal (MRSA strain CAIRD 426; [2]): 0.5*; MICfinal (MRSA strain ATCC 33591; [2]): 0.5*; MICfinal (MRSA strain JMI 1280; [2]): 0.5*; MICfinal (MRSA strain HPV 107; [2]): 2*; MICfinal (MRSA strain ATCC 43300; [2]): 4; MICfinal (MRSA strain JMI4789; [2]): 1*; MICfinal (MRSA strain MW2; [2]): 1*; MICfinal (MRSA strain JMI 227; [2]): 0.5 |
| CCOc1ccc2ccccc2c1C(=O)N[C@@H]1C(=O)N2[C@@H]1SC(C)(C)[C@@H]2C(=O)O [NAF, nafcillin] | below breakpoint values | 64 | 16 | 64 | 256 | 2 | 2 | 4 | 4 | 4 | MICfinal (MRSA strain NRS 11; [3]): 1*; MICfinal (MRSA strain CAIRD 426; [3]): 1*; MICfinal (MRSA strain ATCC 33591; [3]): 2*; MICfinal (MRSA strain JMI 1280; [3]): 2*; MICfinal (MRSA strain HPV 107; [3]): 0.25; MICfinal (MRSA strain ATCC 43300; [3]): 0.25; MICfinal (MRSA strain JMI4789; [3]): 0.5*; MICfinal (MRSA strain MW2; [3]): 0.031*; MICfinal (MRSA strain JMI 227; [3]): 0.5* |
